How the values were obtained:
Format in all cases: cell-based
SW480claudin-1 cells = assay: Resistance to anoikis in claudin-1 overexpressing cells; details: 72 h treatment
Description: The crystal structure of claudin-1 is unknown. Therefore, an in-silico protein folding program, YASARA, was used to identify an effective claudin-1 inhibitor. The resultant 3D-structure was then modeled using Molegro Virtual Docker (MVD) software program. These in-silico analyses identified putative cavities in the claudin-1 protein that can be targeted by small molecule inhibitors. Next, a 100K library of small molecules was screened in silico using the MVD. The top 10 inhibitors that bound to the Site #3 (targeting near c-terminal domain; the most accessible pocket; FIG. 2A) with the best binding energies were selected as hits and used for further testing. Screening of these inhibitors named Inihibitor-1 (1-1) to Inhibitor-10 (I-10) was done using SW480claudin-1, SW620 and control cells. Claudin-1 deficient HCT116 cells (WT-APC) or SW620shRNAcld-1 were used as negative controls. Resistance to anoikis and cell invasion was used as biological end-points in testing these inhibitors. […] 16 has the following structure:
(§1) To this end, a library of molecules was synthesized in order to develop an initial SAR evaluation. The first compounds tested eliminated the acylated (thio) urea as well as the napthyl group and evaluated just the urea/phenyl compounds (Compounds 1-6). The methoxy group of the naphthalene ring system was needed when the benzimidazole group was present (16 vs. Compound 8). […] The result of metabolic stability was expressed as the percentage of drug remaining at each time. […] To further determine the effect of PDS-0330 on p-Src expression and association, cells were treated with Compound 1, 16 and PDS-0330. Expression and association with p-Src was unaffected with Compound 1 (negative control). The specificity of PDS-0330 for CLDN1 was further confirmed by treating SW480^CLDN1, HCT116^CLDN2 (overexpressing another tight junction protein) or normal IEC-6 cells with PDS-0330 (FIG. 12).

[1] = target: T1, claudin-1/Src complex in SW480claudin-1 cells (Homo sapiens, UniProt O95832); assay: Claudin-1/Src association (proximity ligation assay, Co-IP); details: PLA, Co-IP or immuno-precipitation
T1 construct: claudin-1 was expressed in a non-metastatic CRC cell line, SW480 cells; expressed in transfected cells; host or cells: SW480 colorectal cancer cells expressing claudin-1 (SW480claudin-1)
T1 sequence (O95832 1-211): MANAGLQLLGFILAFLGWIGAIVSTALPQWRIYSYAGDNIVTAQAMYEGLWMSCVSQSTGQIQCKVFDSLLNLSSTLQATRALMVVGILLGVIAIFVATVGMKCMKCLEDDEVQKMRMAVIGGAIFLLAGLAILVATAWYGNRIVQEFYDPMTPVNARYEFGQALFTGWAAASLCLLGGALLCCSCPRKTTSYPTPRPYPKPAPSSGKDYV
Description: The CSC cells contribute to the generation of metastasis (16-19), and key CSC characteristics are highly relevant to metastasis, including invasive motility, and, resistance to apoptosis (20,21). […] Considering that chemoresistance is central to the CRC progression and metastasis, we further tested if adjuvant use of 16 with 5FU can have significant bearing upon these traits. Colon cancer cells were subjected to exogenous administration of 16 alone, or in combination with the 5-FU, the conventional anti-CRC drug. […] To further determine the mechanistic details the effect of 16 on association of claudin-1 and Src, SW480claudin-1 cells were treated with 16 or the vehicle and resultant cell lysate was subjected to Proximity ligation assay (PLA) or Co—IP.

[2] = test system: p-Src and c-PARP in SW480claudin-1 overexpressing cells; assay: Expression of p-Src, Src and c-PARP
Description: as §1
Furthermore, DLD-1 chemoresistant cells were treated with PDS-0330 and I-6. […] Based on the in vitro activity and metabolic stability, PDS-0330, and any potential new analogs will be evaluated in animal models to determine the pharmacokinetic properties and biodistribution as described in preliminary data.

Structure (SMILES): COc1ccccc1NC(=O)Nc1ccc(-c2nc3ccccc3[nH]2)cc1 [Compound 1]
- effect on resistance to anoikis (SW480claudin-1 cells): not much change
- claudin-1/Src (p-Src) association [1]: unaffected
- p-Src expression [2]: unaffected
